The values below come from PMC11284788, “NN1213 – A Potent, Long-Acting, and Selective Analog of Human Amylin” (Journal of Medicinal Chemistry, 2024).

Values after ≈ are worked out from the molar mass of the structure shown. Numbered stars: 1 amine (or outer) side, 2 acyl side, 3 side chain; on linkers, the order of the positions; unused ones are H or OH. Bridge positions count the residues as written; N and C are the ends. Side chains are listed from the residue outwards. Peptide text beside a SMILES is read from it. * marks the point of attachment. C20 diacid = O=C(O)CCCCCCCCCCCCCCCCCCC(=O)*; γGlu = O=C(O)[C@H](CCC(=O)[*:2])N[*:1]; AEEA = NCCOCCOCC(=O)O

As usually defined, the kinetic solubility is solubility judged after dilution from a stock solution rather than from solid.

Series [1] is described as follows: HMWP content by size-exclusion chromatography. In kind it is physicochemical. The note with it: covalent dimers and polymers prior to fibril formation testing, SEC, % of total absorbance area at 215 nm. In a few lines:
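Amylin analogs analysed before fibril-formation testing by isocratic SEC in 0.5 M NaCl, 10 mM sodium dihydrogen phosphate, 5 mM ortho-phosphoric acid, 50% (v/v) 2-propanol. HMWP (covalent dimers/polymers) given as peak absorbance area percentage of total, assuming equal extinction coefficients for HMWP and main peak.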
A general note: In gel filtration, larger molecules generally elute earlier.

A short description of series [2]: ThT assay: fibril formation propensity and peptide recovery. The class given is physicochemical. To be noted: for recovery: residual dissolved peptide after 45 h of shaking, centrifugation and 0.22 μm filtration, HPLC, relative to amount before stress; for ThT, pH 4.0 lag-time: 10 mM glycylglycine pH 4.0, 1 μM ThT. In a few lines:
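Peptides at 250 μM in 10 mM glycylglycine (pH 4.0) or HEPES (pH 7.5) with 1 μM ThT, shaken at 37 °C, 960 rpm, for 45 h; ThT fluorescence (ex 444/em 485 nm) read every 20 min. Lag time is the lowest of four replicates (>45 h if none); recovery is soluble peptide by HPLC after centrifugation/filtration, relative to pre-stress.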

Series [3] in a line: Solubility versus pH profile.
Where [4] appears, read: bis-tris-propane buffer, pH 6, aqueous buffer.
[5] abbreviates: bis-tris-propane buffer, pH 6.5, aqueous buffer.
[6] abbreviates: bis-tris-propane buffer, pH 7, aqueous buffer.
Where [7] appears, read: bis-tris-propane buffer, pH 7.5, aqueous buffer.
Where [8] appears, read: bis-tris-propane buffer, pH 8, aqueous buffer.
The mark [9] stands for this setting: lactate buffer, pH 4, aqueous buffer.
The mark [10] stands for this setting: lactate buffer, pH 5, aqueous buffer.
Setting [11] is: 250 μM peptide, 37 °C, 960 rpm, 45 h, lowest of four replicas, average of experiments.

For `CC[C@H](C)[C@H](NC(=O)[C@@H]1CCCN1C(=O)CNC(=O)[C@H](Cc1ccccc1)NC(=O)[C@H](CC(N)=O)NC(=O)[C@@H]1CCCN1C(=O)[C@H](CO)NC(=O)[C@H](CO)NC(=O)[C@H](Cc1c[nH]cn1)NC(=O)[C@H](CCCNC(=N)N)NC(=O)[C@H](CC(C)C)NC(=O)[C@H](Cc1ccccc1)NC(=O)[C@H](CC(=O)O)NC(=O)[C@H](C)NC(=O)[C@H](CC(C)C)NC(=O)[C@H](CCCNC(=N)N)NC(=O)[C@H](CCC(N)=O)NC(=O)[C@@H](NC(=O)[C@H](C)NC(=O)[C@@H]1CSSC[C@H](NC(=O)[C@@H](N)CCCCNC(=O)CC[C@H](NC(=O)CC[C@H](NC(=O)CCCCCCCCCCCCCCCCCCC(=O)O)C(=O)O)C(=O)O)C(=O)N[C@@H](CC(N)=O)C(=O)N[C@@H]([C@@H](C)O)C(=O)N[C@@H](C)C(=O)N[C@@H]([C@@H](C)O)C(=O)N1)[C@@H](C)O)C(=O)N[C@@H](CC(C)C)C(=O)N[C@@H](CO)C(=O)N[C@@H](CO)C(=O)N[C@H](C(=O)N[C@@H](CC(N)=O)C(=O)N[C@H](C(=O)NCC(=O)N[C@@H](CO)C(=O)N[C@@H](CC(=O)O)C(=O)N[C@H](C(=O)N[C@@H](Cc1ccc(O)cc1)C(N)=O)[C@@H](C)O)C(C)C)[C@@H](C)O` [Peptide 3] (H-K([γGlu-γGlu-C20 diacid])CNTATCATQRLADFLRHSSPNFGPILSSTNVGSDTY-NH2; disulfide 2-7), the HMWP in series [1] (analogs 1–9 (pH 7.5 series)) stood at 24%. Besides, the “ThT, pH 7.5 lag-time” value in series [2] (250 μM peptide, 10 mM HEPES pH 7.5, 1 μM ThT, 37 °C, 960 rpm, 45 h, lowest of four replicas, average of experiments) was determined as 0.3 h. The same molecule came in with a recovery in series [2] (pH 7.5) of 19%. In addition, the kinetic solubility in series [3] (setting [4]) came out at 1 µM (≈ 4.55 µg/mL); in series [3] (setting [5]), 1 µM (≈ 4.55 µg/mL); in series [3] (setting [6]), 1 µM (≈ 4.55 µg/mL); in series [3] (setting [7]), 1 µM (≈ 4.55 µg/mL); in series [3] (setting [8]) it was 2 µM (≈ 9.11 µg/mL); in series [3] (setting [9]) it was 1 µM (≈ 4.55 µg/mL). The molecule also returned a kinetic solubility in series [3] (setting [10]) of 1 µM (≈ 4.55 µg/mL).
Turning to `CC[C@H](C)[C@H](NC(=O)[C@H](C)NC(=O)CNC(=O)[C@H](Cc1ccccc1)NC(=O)[C@H](CC(N)=O)NC(=O)[C@@H]1CCCN1C(=O)[C@H](CO)NC(=O)[C@H](CO)NC(=O)[C@H](Cc1c[nH]cn1)NC(=O)[C@H](CCCNC(=N)N)NC(=O)[C@H](CC(C)C)NC(=O)[C@H](Cc1ccccc1)NC(=O)[C@H](CC(N)=O)NC(=O)[C@H](C)NC(=O)[C@H](CC(C)C)NC(=O)[C@H](CCCNC(=N)N)NC(=O)[C@H](CCC(N)=O)NC(=O)[C@@H](NC(=O)[C@H](C)NC(=O)[C@@H]1CSSC[C@H](NC(=O)[C@H](CCCCN)NC(=O)COCCOCCNC(=O)CC[C@H](NC(=O)CCCCCCCCCCCCCCCCCCC(=O)O)C(=O)O)C(=O)N[C@@H](CC(N)=O)C(=O)N[C@@H]([C@@H](C)O)C(=O)N[C@@H](C)C(=O)N[C@@H]([C@@H](C)O)C(=O)N1)[C@@H](C)O)C(=O)N1CCC[C@H]1C(=O)N[C@@H](CO)C(=O)N[C@@H](CO)C(=O)N[C@H](C(=O)N[C@@H](CC(N)=O)C(=O)N[C@H](C(=O)NCC(=O)N[C@@H](CO)C(=O)N[C@@H](Cc1c[nH]cn1)C(=O)N[C@H](C(=O)N[C@@H](Cc1ccc(O)cc1)C(N)=O)[C@@H](C)O)C(C)C)[C@@H](C)O` [Peptide 18] ({C20 diacid-γGlu-AEEA}-KCNTATCATQRLANFLRHSSPNFGAIPSSTNVGSHTY-NH2; disulfide 2-7; N-terminus assumed), the HMWP in series [1] (analogs 10–21 (pH 4.0 series)) stood at 3.5%. Further, in series [2] (setting [11]), the “ThT, pH 4.0 lag-time” value is 15 h. Also, the recovery in series [2] (pH 4.0) worked out at 30%. In addition, the kinetic solubility in series [3] (setting [4]), in series [3] (setting [5]), in series [3] (setting [6]), in series [3] (setting [7]), in series [3] (setting [8]) and in series [3] (setting [9]) was no less than 200 µM in each case. The kinetic solubility in series [3] (setting [10]) is no less than 200 µM.
In turn, `CC[C@H](C)[C@H](NC(=O)[C@H](C)NC(=O)CNC(=O)[C@H](Cc1ccccc1)NC(=O)[C@H](CC(N)=O)NC(=O)[C@@H]1CCCN1C(=O)[C@H](CO)NC(=O)[C@H](CO)NC(=O)[C@H](Cc1c[nH]cn1)NC(=O)[C@H](CCCNC(=N)N)NC(=O)[C@H](CC(C)C)NC(=O)[C@H](Cc1ccccc1)NC(=O)[C@H](CCC(=O)O)NC(=O)[C@H](C)NC(=O)[C@H](CC(C)C)NC(=O)[C@H](CCCNC(=N)N)NC(=O)[C@H](CCC(N)=O)NC(=O)[C@@H](NC(=O)[C@H](C)NC(=O)[C@@H]1CSSC[C@H](NC(=O)[C@H](CCCCN)NC(=O)CC[C@H](NC(=O)CCCCCCCCCCCCCCCCCCC(=O)O)C(=O)O)C(=O)N[C@@H](CC(N)=O)C(=O)N[C@@H]([C@@H](C)O)C(=O)N[C@@H](C)C(=O)N[C@@H]([C@@H](C)O)C(=O)N1)[C@@H](C)O)C(=O)N1CCC[C@H]1C(=O)N[C@@H](CO)C(=O)N[C@@H](CO)C(=O)N[C@H](C(=O)N[C@@H](CC(N)=O)C(=O)N[C@H](C(=O)NCC(=O)N1CCC[C@H]1C(=O)N[C@@H](CC(N)=O)C(=O)N[C@H](C(=O)N[C@@H](Cc1ccc(O)cc1)C(N)=O)[C@@H](C)O)C(C)C)[C@@H](C)O` [Peptide 12] ({C20 diacid-γGlu}-KCNTATCATQRLAEFLRHSSPNFGAIPSSTNVGPNTY-NH2; disulfide 2-7) had an HMWP in series [1] (analogs 10–21 (pH 4.0 series)) of 3.9%. In addition, the “ThT, pH 4.0 lag-time” value in series [2] (setting [11]) is greater than 45 h. In series [2] (pH 4.0), this molecule gave a recovery of 78%. In addition, the solubility (kinetic) in series [3] (setting [4]), in series [3] (setting [5]), in series [3] (setting [6]), in series [3] (setting [7]), in series [3] (setting [8]) and in series [3] (setting [9]) was no less than 200 µM throughout. In series [3] (setting [10]), this molecule came in with a solubility (kinetic) of no less than 200 µM.
For the molecule `CC[C@H](C)[C@H](NC(=O)[C@H](C)NC(=O)CNC(=O)[C@H](Cc1ccccc1)NC(=O)[C@H](CC(N)=O)NC(=O)[C@@H]1CCCN1C(=O)[C@H](CO)NC(=O)[C@H](CO)NC(=O)[C@H](Cc1c[nH]cn1)NC(=O)[C@H](CCCNC(=N)N)NC(=O)[C@H](CC(C)C)NC(=O)[C@H](Cc1ccccc1)NC(=O)[C@H](CC(N)=O)NC(=O)[C@H](C)NC(=O)[C@H](CC(C)C)NC(=O)[C@H](CCCNC(=N)N)NC(=O)[C@H](CCC(N)=O)NC(=O)[C@@H](NC(=O)[C@H](C)NC(=O)[C@@H]1CSSC[C@H](NC(=O)[C@H](CCCNC(=N)N)NC(=O)CNC(=O)CC[C@H](NC(=O)CCCCCCCCCCCCCCCCCCC(=O)O)C(=O)O)C(=O)N[C@@H](CC(N)=O)C(=O)N[C@@H]([C@@H](C)O)C(=O)N[C@@H](C)C(=O)N[C@@H]([C@@H](C)O)C(=O)N1)[C@@H](C)O)C(=O)N1CCC[C@H]1C(=O)N[C@@H](CO)C(=O)N[C@@H](CO)C(=O)N[C@H](C(=O)N[C@@H](CC(N)=O)C(=O)N[C@H](C(=O)NCC(=O)N[C@@H](CO)C(=O)N[C@@H](Cc1c[nH]cn1)C(=O)N[C@H](C(=O)N[C@@H](Cc1ccc(O)cc1)C(N)=O)[C@@H](C)O)C(C)C)[C@@H](C)O` [Peptide 19] ({C20 diacid-γGlu}-GRCNTATCATQRLANFLRHSSPNFGAIPSSTNVGSHTY-NH2; disulfide 3-8), the HMWP in series [1] (analogs 10–21 (pH 4.0 series)) stood at 0.3%. Moreover, in series [2] (setting [11]), the “ThT, pH 4.0 lag-time” value is greater than 45 h. The molecule also yielded a recovery in series [2] (pH 4.0) of 84%. The solubility (kinetic) was no less than 200 µM in series [3] (setting [4]); no less than 200 µM in series [3] (setting [5]); no less than 200 µM in series [3] (setting [6]); 50 µM (≈ 224 µg/mL) in series [3] (setting [7]); 68 µM (≈ 305 µg/mL) in series [3] (setting [8]); no less than 200 µM in series [3] (setting [9]). For the same molecule, the solubility (kinetic) in series [3] (setting [10]) is no less than 200 µM.
